According to EP0233206B1, “SUGAR-[…] THEIR PHARMACEUTICAL USE” (priority 1985, dated 1987):

How the values were obtained:
immunkompetenten Zellen = assay: Activity of immunocompetent cells of the treated animals; type: in vivo, NMRI-Mäusen; details: cells of the animals treated with 500 µg substance in 1 % Squalan-in-Wasser-Lösung
[1] = test system: mäusepathogenen Influenza-Viren; type: in vivo, NMRI-Mäusen; details: 20 NMRI mice, 500 µg each injected in 1 % Squalan-in-Wasser-Lösung, all saline controls died

## COC(=O)CC[C@@H](NC(=O)CNC(=O)CO[C@@H]1[C@H]2OC(C)(C)O[C@H]2O[C@@H]1[C@H]1COC(C)(C)O1)C(=O)OC [Beispiel 1, N-[ (1,2:5,6-Di-0-isopropyliden-α-D-glucofuranos-30-yl)-acetyl]-glycyl-D-glutaminsäure-dimethylester]
Immunkompetenten Zellen
  Aktivität der immunkompetenten Zellen: erhöhte Aktivität
[1]
  überlebten (Tiere): 80%
